Measured values: patent publication US10111889B2, “Uses of ganaxolone” (priority 2014, dated 2018)

What was measured:
RQ mice = test: Evaluation of sleep patterns (video and EEG) in RQ mice; type: in vivo, mouse; conditions: 2 mg/kg i.p. on two consecutive days
Description: RR and RQ mice (n=3 each) were monitored with video and EEG recordings. […] Sleep stages (Wake, NREM and REM) were scored visually from the EEG by an experienced scorer. For statistical analysis, EEG delta power (0.5-4 Hz) was normalized by dividing by the sum of power in the non-delta bands (6-100 Hz).

WAG/Rij mice = conditions: administered directly into somatosensory cortex; cited from earlier work
[1] = clinical trials; even at very high doses; cited from earlier work
GABAA receptor = test: Whole-cell patch clamp, tonic/holding current in somatosensory cortical layer II/III pyramidal cells of brain slices; type: cell-based, mouse; conditions: 30 μM
Description: Horizontal slices (400 μm) were prepared from the brains of C57BL/6J mice RR and RQ mice of either sex (16-26 days old). […] Mice were anesthetized with isoflurane, decapitated, and the brain was removed and placed in ice-cold cutting solution containing (in mM): 125 NaCl, 25 NaHCO3, 2.5 KCl, 1.25 NaH2PO4, 0.5 CaCl2, 3.35 MgCl2, 25 D-Glucose, 13.87 M sucrose, and bubbled with 95% O2 and 5% CO2. Slices were cut using a vibratome (Leica VT 1000S, Global Medical Imaging; Ramsey, Minn.) and placed in an incubation chamber containing standard 2 mM CaCl2, 1 mM MgCl2 artificial cerebrospinal fluid (ACSF) at room temperature for 1 hour before being used for recordings. Whole cell patch-clamp recordings were made from somatosensory cortical layer II/III pyramidal cells or ventrobasal thalamic relay cells, visualized using an upright differential interference contrast microscope (Axioskop FS2, Zeiss; Oberkochen, Germany). […]
Additional segments (30 s) just prior to and 90 s after bicuculline administration were analyzed to quantify inhibitory tonic currents. […] Tonic current was calculated as the difference between the fitted Gaussian means before and after bicuculline administration. Current density (pA/pF) was calculated by dividing the current by cell capacitance.

wild-type (RR) mice = test: EEG monitoring of SWDs in wild-type (RR) mice after blocking cortical tonic inhibition; type: in vivo, mouse
Description: The present study used wild-type Harlan C57BL/6J-OlaHsd and γ2R43Q knock-in mice bred into a background of C57BL/6J-OlaHsd mice. Behavioral and electrographic markers of absence epilepsy in these animals were confirmed by video-EEG monitoring. In-depth detailing of surgery and electrode implantation are described in the prior art. Briefly, P24 mice were implanted, under isoflurane anesthesia (1%-2% in 100% O2), for chronic EEG recordings with gold plated miniature screw electrodes over the right and left frontal and parietal cortices, and one over the cerebellum as reference. Two vinyl-coated braided stainless steel wire electrodes were placed in the nuchal muscle for electromyogram (EMG) recording of muscle activity. All electrodes were gathered into a flexible cable and connected to the Multichannel Neurophysiology Recording system (Tucker-Davis Technologies, TDT, Alachua, Fla., USA). […] Continuous EEG recordings with occasional video monitoring were made and SWDs were scored off-line. […] Only SWD events that occurred >2 min from slow-wave-sleep periods were used for quantification. SWD event durations were measured from the first synchronized positive peak signal to the last synchronized positive peak within an event. […]
When comparing normally distributed data, two groups were assessed with a t-test and comparisons of three or more were assessed with ANOVA. […]

wild-type mice = conditions: thalamus of wild-type mice; cited from earlier work

## CC(=O)[C@H]1CC[C@H]2[C@@H]3CC[C@H]4C[C@](C)(O)CC[C@]4(C)[C@H]3CC[C@]12C [GANX, 3α-hydroxy-3β-methyl-5α-pregnan-20-one]
RQ mice; RQ mice
  briefer Wake durations of RQ mice: not reversed
  shorter brief awakenings (<=16 seconds) of RQ mice: not altered
  shorter durations of single NREM episodes of RQ mice: reversed by GANX to normal levels
RQ mice; RQ mice, normal sleep time (daylight)
  higher normalized delta power of RQ mice: reversed by GANX toward normal levels
RQ mice; RR, RQ, RQ with GANX
  durations of REM: No groups differed
  number of brief awakenings: did not differ between any groups
WAG/Rij mice
  number of SWDs observed: decreases the number of SWDs
[1]
  side effects: relatively modest side effects

## CCOC(=O)c1ncn2c1C1CCCN1C(=O)c1cc(OC)ccc1-2 (stereo not shown) [L655,708, 11,12,13,13a-Tetrahydro-7-methoxy-9-oxo-9H-imidazo[1,5-a]pyrrolo[2,1-c][1,4]benzodiazepine-1-carboxylic acid, ethyl ester]
GABAA receptor
  tonic current in RR somatosensory cortical layer II/III cells: completely blocked
wild-type (RR) mice; 2 mg/kg i.p.
  SWD generation in RR mice: produced SWDs
wild-type (RR) mice; injected twice a day for 2 consecutive days, wild-type mice
  persistence of SWDs after the last injection: still displayed SWDs 3 days after the last injection

## Oc1noc2c1CCNC2 [THIP, 4,5,6,7-tetrahydroisoxazolo[5,4-c]pyridin-3-ol]
wild-type mice
  SWDs associated with absence epilepsy: produces the SWDs

## CC(=O)[C@H]1CC[C@H]2[C@@H]3CC[C@H]4C[C@H](O)CC[C@]4(C)[C@H]3CC[C@]12C [allopregnanolone]
WAG/Rij mice
  number of SWDs observed: decreases the number of SWDs
